How the values were obtained:
L. major = system: L. major; set-up: method as in PMID 37375252; conditions: isolated from the EtOAc layer; cited from earlier work
Leishmania major = experiment: anti-Leishmania major activity, MTT assay; type: cell-based; conditions: for IC50: Leishmania major, MTT, 72 h, 25 °C, n = 3, read-out: IC50 L. major; for SI1 (selective index, SI to L. major): by comparing the cytotoxicity to the Vero cells
Protocol: (§1) The anti-Leishmania major activities of the isolated compounds were evaluated using an MTT assay according to an established protocol. In brief, gradient concentrations of sample solutions in dimethyl sulfoxide (DMSO) and L. major (1 × 10^5 parasite/well) in 100 μL of M199 medium were added to a 96-well plate and then incubated for 72 h at 25 °C. An amount of 100 μL MTT solution was then replaced and incubated overnight. The absorbance of formazan solution in DMSO was measured using a microplate reader at 550 nm. Miltefosine was used as a positive control. The human lung cancer cell line A549 was cultured in 10% FCS-supplemented DMEM. The cytotoxicity assay of isolated compounds was also performed in 96-well plates using the MTT method. Various concentrations of samples in DMSO and A549 (5 × 10^3 cells/well) were cultured in a CO2 incubator for 72 h. The medium was then replaced with 100 μL MTT solution and incubated for 1.5 h in the same condition. The viability was calculated by the absorbance of formazan at 550 nm using a microplate reader. The cytotoxicity assay against the Vero cell line was conducted as in A549, which is mentioned above. Doxorubicin was used as a positive control. The concentration gradient of each activity was essentially set as 100, 50, 25, 12.5, and 6.25 μg/mL (Figures S67–S69).

[1] = system: human lung cancer cell line A549; experiment: cytotoxicity against A549, MTT method; type: cell-based; conditions: for IC50: Homo sapiens, A549, MTT, 72 h, n = 3; for SI2 (selective index, SI to A549): by comparing the cytotoxicity to the Vero cells
Protocol: as §1

Vero cells = experiment: cytotoxicity against Vero cell line, MTT method; type: cell-based; conditions: Chlorocebus sabaeus, 72 h, n = 3
Protocol: as §1

| IC50 (Leishmania major) [µM] | Molecule | cytotoxicity against L. major (L. major) | IC50 [1] [µM] | IC50 (Vero cells) [µM] | SI1 (selective index, SI to L. major) (Leishmania major) | SI2 (selective index, SI to A549) [1] |
| --- | --- | --- | --- | --- | --- | --- |
| – | crossoseamine A | potent cytotoxicity | – | – | – | – |
| 30.8 ± 5.81 | CC1=C2C3OC(=O)C(CN4CCCC4C(=O)O)C3C(O)CC2(C)C(=O)CC1 (stereo not drawn) [Compound 7, Crossoseamine E] | – | 58.9 ± 13.6 | 23.8 ± 2.47 | – | – |
| 52.6 ± 11.6 | CC1=C2C3OC(=O)C(CN4CCCC4C(=O)O)C3CCC2(C)C(=O)CC1 (stereo not drawn) [Compound 6, Crossoseamine D] | – | 83.9 ± 12.1 | 48.5 ± 4.07 | – | – |
| 0.81 ± 0.26 | C=C1C(=O)O[C@H]2C3=C(C)CCC(=O)[C@]3(C)C[C@H](OC(=O)C=C(C)C)[C@@H]12 [Compound 1, Crossostenin A] | – | 2.97 ± 0.58 | 5.99 ± 0.76 | 7.4 | 2.0 |
| 4.72 ± 1.26 | CC(=O)OC1CC2(C)C(=O)CCC(C)=C2C2OC(=O)C(CN3CCCC3C(=O)O)C12 (stereo not drawn) [Compound 5, Crossoseamine C] | – | 17.4 ± 1.86 | 11.4 ± 0.98 | – | – |
| 7.66 ± 2.26 | C=C(C(=O)OC)[C@@H]1[C@@H](OC(=O)/C(C)=C\C)C[C@@]2(C)C(=O)CCC(C)=C2[C@H]1O [Compound 4, Crossostenin D] | – | 17.1 ± 1.86 | 17.2 ± 1.36 | – | – |
| – | COc1cccc2c1C(=O)c1c(O)c3c(c(O)c1C2=O)C[C@@](O)(C(=O)CO)C[C@@H]3O[C@H]1C[C@H](N)[C@H](O)[C@H](C)O1 [doxorubicin, reference compound] | – | 0.45 ± 0.13 | 3.82 ± 0.79 | – | – |
| – | crossoseamine B | potent cytotoxicity | – | – | – | – |
| 0.96 ± 0.17 | C=C1C(=O)O[C@H]2C3=C(C)CCC(=O)[C@]3(C)C[C@H](OC(=O)/C(C)=C/C)[C@@H]12 [Compound 2, Crossostenin B] | – | 2.3 ± 0.26 | 7.84 ± 0.61 | 8.2 | 3.4 |
| 3.75 ± 0.98 | C=C(C(=O)OC)[C@@H]1[C@@H](OC(=O)/C(C)=C/C)C[C@@]2(C)C(=O)CCC(C)=C2[C@H]1O [Compound 3, Crossostenin C] | – | 5.59 ± 0.72 | 6.2 ± 1.36 | – | – |
| 18.1 ± 1.69 | CCCCCCCCCCCCCCCCOP(=O)([O-])OCC[N+](C)(C)C [miltefosine, reference compound] | – | – | – | – | – |

From article PMC10746127, “New ψ-Santonin Derivatives from Crossostephium chinense and Their Anti-Proliferative Activities against Leishmania major and Human Cancer Cells A549” (Molecules, 2023)
